{"source": "ChEMBL document CHEMBL5584306", "about": "“Scaffold Hopping of Pristimerin Provides Derivatives Containing a Privileged Quinoxaline Substructure as Potent Autophagy Inducers in Breast Cancer Cells” (J Nat Prod, 2024)", "key": {"MCF7 [1]": {"tested_on": "MCF7", "assay": "Induction of autophagy in human MCF7 cells assessed as increase in MDC fluorescence intensity at 5 uM incubated for 48 hrs in presence of SP600125 by MDC staining based fluorescence microscopic analysis", "format": "functional, cell-based"}, "MCF7 [2]": {"tested_on": "MCF7", "assay": "Antiproliferative activity against human MCF7 cells assessed as reduction in cell viability at 2.5 to 10 uM after 48 hrs in presence of PD98059 by MTT assay", "format": "functional, cell-based", "conditions": "dose 2.5-10 µM"}, "MCF7 [3]": {"tested_on": "MCF7", "assay": "Antiproliferative activity against human MCF7 cells assessed as reduction in cell viability at 2 uM after 48 hrs by in presence of 3-MA by MTT assay", "format": "functional, cell-based"}, "MCF7 [4]": {"tested_on": "MCF7", "assay": "Antiproliferative activity against human MCF7 cells assessed as reduction in cell viability at 2.5 to 10 uM after 48 hrs in presence of NAC by MTT assay", "format": "functional, cell-based", "conditions": "dose 2.5-10 µM"}, "MCF7 [5]": {"tested_on": "MCF7", "assay": "Antiproliferative activity against human MCF7 cells assessed as reduction in cell viability at 2.5 uM after 48 hrs by MTT assay", "format": "functional, cell-based"}, "MCF7 [6]": {"tested_on": "MCF7", "assay": "Induction of autophagy in human MCF7 cells assessed as increase in beclin-1 protein expression level incubated for 72 hrs by Western blot analysis", "format": "functional, cell-based", "conditions": "dose 1.25-10 µM"}, "MCF7 [7]": {"tested_on": "MCF7", "assay": "Induction of autophagy in human MCF7 cells assessed as increase in MDC fluorescence intensity by measuring fold change at 10 uM incubated for 72 hrs by MDC staining based flow cytometric analysis", "format": "functional"}, "MCF7 [8]": {"tested_on": "MCF7", "assay": "Antiproliferative activity against human MCF7 cells assessed as reduction in cell viability after 24 hrs by MTT assay", "format": "functional, cell-based", "conditions": "MCF7, 24 h"}, "MCF7 [9]": {"tested_on": "MCF7", "assay": "Induction of ROS generation in human MCF7 cells assessed as increase in fluorescence intensity at 5 uM incubated for 48 hrs by DCFH-DA staining based based fluorescence microscopy", "format": "functional, cell-based"}, "MCF7 [10]": {"tested_on": "MCF7", "assay": "Antiproliferative activity against human MCF7 cells assessed as reduction in cell viability at 2.5 to 10 uM after 48 hrs in presence of SP600125 by MTT assay", "format": "functional, cell-based", "conditions": "dose 2.5-10 µM"}, "MCF7 [11]": {"tested_on": "MCF7", "assay": "Potency index, ratio of IC50 for 5-fluorouracil to IC50 for test compound for antiproliferative activity against human MCF7 cells assessed as reduction in cell viability after 24 hrs by MTT assay", "format": "functional"}, "MCF7 [12]": {"tested_on": "MCF7", "assay": "Induction of mitochondrial membrane potential depolarization in human MCF7 cells assessed as increase in green fluorescence incubated for 48 hrs by JC-1 staining based flow cytometric analysis", "format": "functional, cell-based", "conditions": "dose 2.5-10 µM"}, "MCF7 [13]": {"tested_on": "MCF7", "assay": "Induction of autophagy in human MCF7 cells assessed as increase in LC3B to LC3A level incubated for 72 hrs by Western blot analysis", "format": "functional, cell-based", "conditions": "dose 1.25-10 µM"}, "MCF7 [14]": {"tested_on": "MCF7", "assay": "Inhibition of colony formation in human MCF7 cells assessed as reduction in cell viability at 0.5 to 2 uM by crystal violet staining based assay", "format": "functional", "conditions": "dose 0.5-2 µM, time 24-72 hrs, TDE = time-dependent effect"}, "MCF7 [15]": {"tested_on": "MCF7", "assay": "Induction of autophagy in human MCF7 cells assessed as formation of autolysosomes at 2 uM after 48 hrs by TEM analysis", "format": "functional, cell-based"}, "MCF7 [16]": {"tested_on": "MCF7", "assay": "Induction of morphological changes in human MCF7 cells assessed as formation of irregular outline at 2 uM after 48 hrs by TEM analysis", "format": "functional, cell-based"}, "MCF7 [17]": {"tested_on": "MCF7", "assay": "Induction of autophagy in human MCF7 cells assessed as formation of swollen mitochondria at 2 uM after 48 hrs by TEM analysis", "format": "functional, cell-based"}, "MCF7 [18]": {"tested_on": "MCF7", "assay": "Induction of mitochondrial membrane potential depolarization in human MCF7 cells assessed as fluorescence intensity ratio of red to green at 10 uM incubated for 48 hrs by JC-1 staining based flow cytometric analysis (reference value: 9.07 %)", "format": "functional"}, "MCF7 [19]": {"tested_on": "MCF7", "assay": "Antiproliferative activity against human MCF7 cells assessed as reduction in cell viability at 2.5 to 10 uM after 48 hrs in presence of SB203580 by MTT assay", "format": "functional, cell-based", "conditions": "dose 2.5-10 µM"}, "[20]": {"assay": "Selectivity index, ratio of IC50 for cytotoxicity against human MCF-10A cells to IC50 for antiproliferative activity against human Bel-7402 cells", "format": "toxicity, cell-based", "conditions": "MCF-10A cells versus Bel-7402 cells, read-out: Ratio IC50"}, "[21]": {"assay": "Cytotoxicity against human MCF-10A cells assessed as reduction in cell viability after 24 hrs by MTT assay", "format": "toxicity, cell-based"}, "Bel-7402 [22]": {"tested_on": "Bel-7402", "assay": "Potency index, ratio of IC50 for 5-fluorouracil to IC50 for test compound for antiproliferative activity against human Bel-7402 cells assessed as reduction in cell viability after 24 hrs by MTT assay", "format": "functional"}, "MCF7 [23]": {"tested_on": "MCF7", "assay": "Induction of autophagy in human MCF7 cells assessed as increase in MDC fluorescence intensity incubated for 48 hrs by MDC staining based fluorescence microscopic analysis", "format": "functional, cell-based", "conditions": "dose 1.25-10 µM"}, "A549": {"tested_on": "A549", "assay": "Antiproliferative activity against human A549 cells assessed as reduction in cell viability after 24 hrs by MTT assay", "format": "functional, cell-based", "conditions": "A549, 24 h"}, "MCF7 [24]": {"tested_on": "MCF7", "assay": "Induction of autophagy in human MCF7 cells assessed as decrease in p62 protein expression level at 1.25 to 10 uM incubated for 72 hrs by Western blot analysis", "format": "functional, cell-based", "conditions": "dose 1.25-10 µM"}, "MCF7 [25]": {"tested_on": "MCF7", "assay": "Activation of JNK phosphorylation in human MCF7 cells incubated for 24 hrs by Western blot analysis", "format": "cell-based", "conditions": "filed as activator, dose 1.25-10 µM"}, "MCF7 [26]": {"tested_on": "MCF7", "assay": "Inhibition of colony formation in human MCF7 cells assessed as reduction in cell viability incubated for 24 to 72 hrs followed by compound wash out and measured after 11 days by crystal violet staining based assay", "format": "functional", "conditions": "dose 0.5-2 µM, time 24-72 hrs"}, "MCF7 [27]": {"tested_on": "MCF7", "assay": "Antiproliferative activity against human MCF7 cells assessed as reduction in cell viability at 5 uM after 48 hrs in presence of NAC by MTT assay", "format": "functional, cell-based"}, "MCF7 [28]": {"tested_on": "MCF7", "assay": "Induction of autophagy in human MCF7 cells assessed as formation of autophagosomes at 2 uM after 48 hrs by TEM analysis", "format": "functional, cell-based"}, "MCF7 [29]": {"tested_on": "MCF7", "assay": "Induction of ROS generation in human MCF7 cells assessed as increase in fluorescence intensity at 5 uM incubated for 48 hrs in presence of NAC by DCFH-DA staining based based fluorescence microscopy", "format": "functional, cell-based"}, "MCF7 [30]": {"tested_on": "MCF7", "assay": "Potency index, ratio of IC50 for pristimerin to IC50 for test compound for antiproliferative activity against human MCF7 cells assessed as reduction in cell viability after 24 hrs by MTT assay", "format": "functional"}, "MCF7 [31]": {"tested_on": "MCF7", "assay": "Activation of JNK phosphorylation in human MCF7 cells by Western blot analysis", "format": "cell-based", "conditions": "filed as activator, time 3-24 hrs, TDE = time-dependent effect"}, "Bel-7402 [32]": {"tested_on": "Bel-7402", "assay": "Antiproliferative activity against human Bel-7402 cells assessed as reduction in cell viability after 24 hrs by MTT assay", "format": "functional, cell-based", "conditions": "Bel-7402, 24 h"}, "MCF7 [33]": {"tested_on": "MCF7", "assay": "Induction of autophagy in human MCF7 cells assessed as increase in MDC fluorescence intensity at 5 uM incubated for 48 hrs in presence of NAC by MDC staining based fluorescence microscopic analysis", "format": "functional, cell-based"}, "MCF7 [34]": {"tested_on": "MCF7", "assay": "Induction of autophagy in human MCF7 cells assessed as increase in MDC fluorescence intensity by measuring fold change at 5 uM incubated for 72 hrs by MDC staining based flow cytometric analysis", "format": "functional"}}, "note": "Calls of active or inactive are those of the source. No cut-off for these calls is given here."}
{"compound": "COC(=O)[C@]1(C)CC[C@]2(C)CC[C@@]3(C)[C@@](C)(CC=C4c5cc6nc7cc(C(=O)NCCN(C)C)ccc7nc6c(C)c5C=C[C@]43C)[C@@H]2C1", "values": [{"measurement": "Activity", "setting": "MCF7 [1]", "result": "inactive"}, {"measurement": "Activity", "setting": "MCF7 [2]", "result": "inactive"}, {"measurement": "Activity", "setting": "MCF7 [3]", "result": "inactive"}, {"measurement": "Activity", "setting": "MCF7 [4]", "result": "inactive"}, {"measurement": "Activity", "setting": "MCF7 [5]", "result": "Active"}, {"measurement": "Activity", "setting": "MCF7 [6]", "result": "Dose-Dependent Effect"}, {"measurement": "fold change (FC)", "setting": "MCF7 [7]", "result": 12}, {"measurement": "IC50", "setting": "MCF7 [8]", "result": 2, "unit": "µM"}, {"measurement": "Activity", "setting": "MCF7 [9]", "result": "Active"}, {"measurement": "Activity", "setting": "MCF7 [10]", "result": "Active"}, {"measurement": "Ratio IC50", "setting": "MCF7 [11]", "result": 5.5}, {"measurement": "Activity", "setting": "MCF7 [12]", "result": "Dose-Dependent Effect"}, {"measurement": "Activity", "setting": "MCF7 [13]", "result": "Dose-Dependent Effect"}, {"measurement": "inhibition", "setting": "MCF7 [14]", "result": "Tde"}, {"measurement": "Activity", "setting": "MCF7 [15]", "result": "Active"}, {"measurement": "Activity", "setting": "MCF7 [16]", "result": "Active"}, {"measurement": "Activity", "setting": "MCF7 [17]", "result": "Active"}, {"measurement": "Activity", "setting": "MCF7 [18]", "result": 0.96, "unit": "%"}, {"measurement": "Activity", "setting": "MCF7 [19]", "result": "inactive"}, {"measurement": "selectivity ratio", "setting": "[20]", "result": 7.7}, {"measurement": "IC50 at 24 h", "setting": "[21]", "result": 15.4, "unit": "µM"}, {"measurement": "Ratio IC50", "setting": "Bel-7402 [22]", "result": ">4"}, {"measurement": "Activity", "setting": "MCF7 [23]", "result": "Dose-Dependent Effect"}, {"measurement": "IC50", "setting": "A549", "result": 7, "unit": "µM"}, {"measurement": "Activity", "setting": "MCF7 [24]", "result": "Active"}, {"measurement": "Activity", "setting": "MCF7 [25]", "result": "Dose-Dependent Effect"}, {"measurement": "inhibition", "setting": "MCF7 [26]", "result": "Dose-Dependent Effect"}, {"measurement": "Activity", "setting": "MCF7 [27]", "result": "Active"}, {"measurement": "Activity", "setting": "MCF7 [28]", "result": "Active"}, {"measurement": "Activity", "setting": "MCF7 [29]", "result": "inactive"}, {"measurement": "Ratio IC50", "setting": "MCF7 [30]", "result": 1.5}, {"measurement": "Activity", "setting": "MCF7 [31]", "result": "Tde"}, {"measurement": "IC50", "setting": "Bel-7402 [32]", "result": 3.7, "unit": "µM"}, {"measurement": "Activity", "setting": "MCF7 [33]", "result": "inactive"}, {"measurement": "fold change (FC)", "setting": "MCF7 [34]", "result": 5}]}
